Results on one molecule are retold here after publication PMC12423301, “Astrocytic monoamine oxidase B (MAOB)–gamma-aminobutyric acid (GABA) axis as a molecular brake on repair following spinal cord injury” (Signal Transduction and Targeted Therapy, 2025).

For data set [1] the following is noted: cynomolgus monkey, in vivo, po.
In data set [2] the test system is GABAA receptor-mediated currents from lamina II dorsal horn neurons. Description: Tonic GABA current recording. In kind it is in vivo, rat. As to conditions: SCI + KDS 2w, PI 10w.

The structures appear in SMILES notation. Where only a bound is given, the exact number is not on record here.

`CS(=O)(=O)O.C[C@H](NCc1ccc(-c2ccc(C(F)(F)F)cc2)cc1)C(N)=O` [KDS2010, (S)-2-(((4’-Trifluoromethylbiphenyl-4-yl)methyl)amino)propanamide methane-sulfonate] showed an approximate lethal dose in data set [1] of at least 100 mg/kg. Moreover, in data set [2], the “tonic GABA current density” value was “significantly recovered”.
